Measurements taken from patent publication US7138361B2, “Herbicidal heterocycles” (E. I. du Pont de Nemours and Company, priority 2000, dated 2006).

Key:
Experiment in all cases: Test C preemergence
Format in all cases: in vivo
[1] = system: cocklebur (Xanthium strumarium); details: for Plant response rating (0 to 100), Cocklebur: visual evaluation after 12 to 14 days
Procedure, shortened: (§1)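 Test chemicals, formulated in a non-phytotoxic solvent mixture with surfactant, were applied preemergence to planted seeds or postemergence to plants 2 to 18 cm tall (1- to 4-leaf stage). After 12 to 14 days in a greenhouse, injury was visually rated against untreated controls on a 0–100 scale.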

kochia (Kochia scoparia) = details: for Plant response rating (0 to 100), Kochia: visual evaluation after 12 to 14 days
Procedure, shortened: as §1

[2] = system: common ragweed (Ambrosia elatior); details: for Plant response rating (0 to 100), Ragweed, Common: Rate 500 g/ha, visual evaluation after 12 to 14 days
Procedure, shortened: as §1

Nightshade = system: Nightshade
Sunflower = details: visual evaluation after 12 to 14 days
[3] = Rate 125 g/ha, scale 0 to 100, 0 no effect, 100 complete control
[4] = preemergence, Rate 250 g/ha, scale 0 to 100, 0 no effect, 100 complete control
[5] = preemergence, Rate 62 g/ha, scale 0 to 100
[6] = Rate 125 g/ha; scale 0 to 100, 0 no effect, 100 complete control
[7] = Rate 250 g/ha, scale 0 to 100, 0 no effect, 100 complete control
[8] = Preemergence, Rate 500 g/ha, scale 0 to 100
[9] = Rate 62 g/ha, scale 0 to 100, 0 no effect, 100 complete control
[10] = preemergence, Rate 125 g/ha, scale 0 to 100, 0 no effect, 100 complete control
[11] = preemergence, Rate 31 g/ha, scale 0 to 100

| Structure (SMILES) | Plant response rating, Cocklebur [1, 3] | Plant response rating (0 to 100), Cocklebur ([1]; preemergence, Rate 500 g/ha) | Plant response rating, Cocklebur [1, 4] | Plant response rating, Kochia (kochia (Kochia scoparia); [3]) | Plant response rating (0 to 100), Kochia (kochia (Kochia scoparia); preemergence, Rate 500 g/ha) | Plant response rating, Kochia (kochia (Kochia scoparia); [4]) | Plant response rating, Ragweed, Common [2, 3] | Plant response rating, Ragweed, Common [2, 5] | Plant response rating (0 to 100), Ragweed, Common ([2]; preemergence) | Plant response rating, Ragweed, Common [2, 4] | Plant response rating, Nightshade (Nightshade; Rate 62 g/ha, scale 0 to 100) | Plant response rating, Nightshade (Nightshade; [6]) | Plant response rating, Nightshade (Nightshade; [7]) | Plant response rating (0 to 100), Sunflower (Sunflower; Rate 500 g/ha) | Plant response rating, Cocklebur [1, 5] | Plant response rating, Kochia (kochia (Kochia scoparia); [5]) | other results |
| --- | --- | --- | --- | --- | --- | --- | --- | --- | --- | --- | --- | --- | --- | --- | --- | --- | --- |
| CCCC(C)c1ccn(C2OCN(c3cccc(OC(F)F)c3)C2=O)n1 (stereo not drawn) [Compound 132] | 0 | 0 | 0 | 100 | 100 | 100 | 0 | 0 | 0 | 0 | 0 | 0 | 20 |  |  |  |  |
| CCC(CC)c1ccn(C2CCN(c3ccc(Cl)c(OC)c3)C2=O)n1 (stereo not drawn) [Compound 118] | 0 | 0 | 0 | 100 | 100 | 100 |  | 60 | 100 | 80 | 100 | 100 | 100 | 70 | 0 | 80 |  |
| CC(C)(C)c1ccn(C2OCN(c3cccc(OC(F)F)c3)C2=O)n1 (stereo not drawn) [Compound 133] | 0 | 0 | 0 | 100 | 100 | 100 | 0 | 0 | 0 | 0 | 0 | 0 | 20 | 0 | 0 | 100 |  |
| CCC(CC)c1ccn(C2CCN(c3ccc(F)c(C(F)(F)F)c3)C2=O)n1 (stereo not drawn) [Compound 144] | 60 | 60 | 60 | 100 | 100 | 100 | 0 | 0 | 50 | 30 | 100 | 100 | 100 | 70 | 50 | 90 |  |
| CC(C)(C)c1ccn(C2CCN(c3cccc(C(F)(F)F)c3)C2=S)n1 (stereo not drawn) [Compound 22] |  |  |  |  |  |  |  |  |  |  |  |  |  |  |  |  | Plant response rating (0 to 100), Sunflower (Sunflower; Rate 250 g/ha): 0; Plant response rating, Cocklebur [1, 8]: 0; Plant response rating, Cocklebur [1, 9]: 0; Plant response rating (0 to 100), Cocklebur ([1]; preemergence, Rate 250 g/ha): 0; Plant response rating, Cocklebur [1, 10]: 0; Plant response rating, Kochia (kochia (Kochia scoparia); [8]): 100; Plant response rating, Kochia (kochia (Kochia scoparia); [9]): 100; Plant response rating (0 to 100), Kochia (kochia (Kochia scoparia); preemergence, Rate 250 g/ha): 100; Plant response rating, Kochia (kochia (Kochia scoparia); [10]): 100; Plant response rating, Nightshade (Nightshade; Rate 62 g/ha; scale 0 to 100, 0 no effect, 100 complete control): 0; Plant response rating, Nightshade (Nightshade; [3]): 0; Plant response rating, Nightshade (Nightshade; Rate 500 g/ha, scale 0 to 100): 80 |
| Cc1cc(C)nc(N2CCC(n3ccc(C(C)(C)C)n3)C2=O)c1 (stereo not drawn) [Compound 138] | 0 |  | 0 | 100 |  | 100 | 0 | 0 |  | 30 | 0 | 50 | 90 |  | 0 | 90 | Plant response rating, Cocklebur [1, 11]: 0; Plant response rating, Kochia (kochia (Kochia scoparia); [11]): 60; Plant response rating, Ragweed, Common [2, 11]: 0; Plant response rating, Nightshade (Nightshade; Rate 31 g/ha, scale 0 to 100): 0 |
| CCC(C)c1ccn(C2CCN(c3ccc(F)c(C(F)(F)F)c3)C2=O)n1 (stereo not drawn) [Compound 145] | 20 | 60 | 50 | 100 | 100 | 100 | 0 | 0 | 20 | 0 | 0 | 10 | 20 | 50 | 0 | 100 |  |
| CCC(C)c1ccn(C2OCN(c3cccc(OC(F)F)c3)C2=O)n1 (stereo not drawn) [Compound 134] | 0 | 0 | 0 | 100 | 100 | 100 | 0 | 0 | 40 | 0 | 0 | 10 | 30 | 20 | 0 | 100 |  |
| CCOc1cccc(N2CCC(n3ccc(C(C)(C)C)n3)C2=O)c1 (stereo not drawn) [Compound 130] |  | 0 | 0 | 100 | 100 | 100 | 100 | 100 | 100 | 100 | 100 | 100 | 100 | 70 | 0 | 100 |  |
